System: buccal mucosal membrane
Assay: Needle stab after applying the surface anesthetic agent to the buccal mucosal membrane: time for the painless effect to be exerted
Assay type: in vivo
Details: 200 mg applied with a cotton swab to the buccal mucosal membrane, then a needle stabbed
Description: Various surface anesthetic agents mentioned above were applied to the buccal mucosal membrane, and then a needle was stabbed, and the time for the painless effect to be exerted and the time for the pain to start again were measured.
(1) As a sample of tetracaine alone, 200 mg (12 mg tetracaine) COPALON was attached to a cotton swab, and applied to the buccal mucosal membrane.
(2) As a sample of lidocaine alone, 200 mg Xylocaine jelly (4 mg lidocaine) was attached to a cotton swab, and applied to the buccal mucosal membrane.
(3) As a sample of a combination use of tetracaine and lidocaine, various mixtures of tetracaine and lidocaine in 92:8, 82:18, 67:33 and 43:57 mass ratios were prepared by varying the blending ratio of COPALON and Xylocaine jelly to 80:20, 60:40, 40:60 and 20:80. 200 mg of each of the prepared mixtures was attached to a cotton swab, and applied to the buccal mucosal membrane. […]
Various surface anesthetic agents containing tetracaine and/or lidocaine mentioned above were applied to the buccal mucosal membrane, and then a needle was stabbed, and the time for the painless effect to be exerted and the time for the pain to start again were measured.

With CCN(CC)CC(=O)Nc1c(C)cccc1C [Comparative Example 1-2, 2-(diethylamino)-N-(2,6-dimethylphenyl) acetamide] the “time for the painless effect to be exerted after the application” value was 5 min.
